Data published in US20250296938A1, “Compounds that Interact with the Ras Superfamily for the Treatment of Cancers, Inflammatory Diseases, Rasopathies, and Fibrotic Disease” (SHY Therapeutics, LLC, priority 2018, published 2025).
Read-outs that look alike come from different tables or passages of the source.

Experiments:
Test in all cases: Ras GTP binding domain inhibition assay (Cy3-GTP/Cy5-GTP competition)
[1] = test system: KRas wild type; set-up: species or system human; settings: 20 μM; for KRas wild type: % inh.: without SOS; for KRas wild type % inh.: without SOS (Table 7A)
Procedure, shortened: (§1)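 His-tagged Ras proteins were captured on nickel-coated wells in Buffer-I (25 mM Tris-HCl pH 7.4, 27 mM KCl, 137 mM NaCl, 1 mM MgCl2, 1 mM DTT) or Buffer-II (50 mM Tris-HCl pH 7.0). Compounds (20 μM or serial dilution, 1% DMSO) were incubated 3 h at RT, ±Sos(556-1049) in the final hour. Bound Cy3-/Cy5-GTP (100 nM, 45 min) was read after washing.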

[2] = test system: KRas G12C mutant; set-up: species or system human; settings: 20 μM
Procedure, shortened: as §1

[3] = test system: KRas Q61H mutant; set-up: species or system human; settings: 20 μM
Procedure, shortened: as §1

[4] = target: T1, KRas G12D mutant (Homo sapiens, UniProt P01116, G12D); settings: 20 μM
T1 construct: fused on or other part: His tag, used for capture on nickel-coated plates
Procedure, shortened: as §1

[5] = with SOS, read-out: KRas G-12D mutant + SOS: % inh.
[6] = without SOS, read-out: KRas G12D mutant: % inh.
[7] = with SOS (Table 7A), read-out: KRas G12D mutant + SOS: % inh.
[8] = without SOS (Table 7A), read-out: KRas G12D mutant: % inh.

| Structure (SMILES) | KRas wild type + SOS: % inh. ([1]; with SOS) | KRas wild type: % inh. [1] | KRas G12C mutant + SOS: % inh. ([2]; with SOS) | KRas G12C mutant: % inh. ([2]; without SOS) | KRas Q61H mutant + SOS: % inh. ([3]; with SOS) | KRas Q61H mutant: % inh. ([3]; without SOS) | inhibition at 20 µM [4, 5] | inhibition at 20 µM [4, 6] | KRas wild type + SOS: % inh. ([1]; with SOS (Table 7A)) | KRas wild type % inh. [1] | KRas G12C mutant + SOS: % inh. ([2]; with SOS (Table 7A)) | KRas G12C mutant: % inh. ([2]; without SOS (Table 7A)) | KRas Q61H mutant + SOS: % inh. ([3]; with SOS (Table 7A)) | KRas Q61H mutant: % inh. ([3]; without SOS (Table 7A)) | inhibition at 20 µM [4, 7] | inhibition at 20 µM [4, 8] |
| --- | --- | --- | --- | --- | --- | --- | --- | --- | --- | --- | --- | --- | --- | --- | --- | --- |
| COC1CCN(c2nc(-c3nccn3C)nc3sc(-c4cnn(C)c4)c(-c4ccccc4)c23)C1.Cl (stereo not shown) | D (76-100% inhibition) | B (26-50% inhibition) | D (76-100% inhibition) | C (51-75% inhibition) | D (76-100% inhibition) | B (26-50% inhibition) | 76 to 100% | 26 to 50% | – | – | – | – | – | – | – | – |
| COCCc1ccc(Oc2nc(-c3ccccn3)nc(O)c2OC)cc1 [drawing 814] | B (26-50% inhibition) | D (76-100% inhibition) | B (26-50% inhibition) | A (1-25% inhibition) | C (51-75% inhibition) | B (26-50% inhibition) | 26 to 50% | 51 to 75% | – | – | – | – | – | – | – | – |
| COc1cccc(-c2sc3nc(-c4nccn4C)nc(N4CCC(OC)C4)c3c2-c2ccccc2)c1F.Cl (stereo not shown) [drawing 838] | D (76-100% inhibition) | C (51-75% inhibition) | D (76-100% inhibition) | B (26-50% inhibition) | D (76-100% inhibition) | B (26-50% inhibition) | 51 to 75% | 51 to 75% | – | – | – | – | – | – | – | – |
| COCCN(C)C(=O)c1nc(-c2ccccn2)nc(O)c1O [drawing 810] | A (1-25% inhibition) | B (26-50% inhibition) | A (1-25% inhibition) | C (51-75% inhibition) | A (1-25% inhibition) | A (1-25% inhibition) | 1 to 25% | 1 to 25% | – | – | – | – | – | – | – | – |
| Cn1ccc(-c2sc3nc(-c4nccn4C)nc(NCC4CCOC4)c3c2-c2ccccc2)n1 (stereo not shown) [drawing 861] | B (26-50% inhibition) | 0 (0% inhibition) | C (51-75% inhibition) | 0 (0% inhibition) | C (51-75% inhibition) | B (26-50% inhibition) | 1 to 25% | 26 to 50% | – | – | – | – | – | – | – | – |
| O=C(c1nc(-c2ccccn2)nc(O)c1O)N1CCc2ccccc2C1 [drawing 832] | B (26-50% inhibition) | C (51-75% inhibition) | B (26-50% inhibition) | C (51-75% inhibition) | B (26-50% inhibition) | C (51-75% inhibition) | 26 to 50% | 51 to 75% | – | – | – | – | – | – | – | – |
| COC1CCN(c2nc(-c3nccn3C)nn3cc(-c4ccccc4)c(-c4ccccc4)c23)C1 (stereo not shown) [drawing 796] | A (1-25% inhibition) | B (26-50% inhibition) | B (26-50% inhibition) | A (1-25% inhibition) | B (26-50% inhibition) | B (26-50% inhibition) | 1 to 25% | 26 to 50% | – | – | – | – | – | – | – | – |
| COc1c(O)nc(-c2ccccn2)nc1Oc1ccccc1 [drawing 813] | B (26-50% inhibition) | D (76-100% inhibition) | C (51-75% inhibition) | C (51-75% inhibition) | C (51-75% inhibition) | D (76-100% inhibition) | 26 to 50% | 26 to 50% | – | – | – | – | – | – | – | – |
| CCn1cc(Nc2nc(-c3ccccn3)nc(O)c2OC)cn1 [drawing 881] | – | – | – | – | – | – | – | – | B (26-50% inhibition) | C (51-75% inhibition) | B (26-50% inhibition) | C (51-75% inhibition) | B (26-50% inhibition) | A (1-25% inhibition) | 26 to 50% | 26 to 50% |
| COc1c(O)nc(-c2ccccn2)nc1Oc1cnn(C)c1 [drawing 803] | B (26-50% inhibition) | D (76-100% inhibition) | C (51-75% inhibition) | C (51-75% inhibition) | C (51-75% inhibition) | D (76-100% inhibition) | 51 to 75% | 51 to 75% | – | – | – | – | – | – | – | – |
| COc1ccc(Cn2cnc(-c3nc(O)c4scc(-c5ccccn5)c4n3)c2)cc1 [drawing 839] | A (1-25% inhibition) | A (1-25% inhibition) | A (1-25% inhibition) | B (26-50% inhibition) | A (1-25% inhibition) | B (26-50% inhibition) | 0% | 1 to 25% | – | – | – | – | – | – | – | – |
| COCC(C)Nc1nc(-c2nccn2C)nc2sc(-c3ccccc3Cl)c(-c3cscn3)c12 (stereo not shown) [drawing 854] | D (76-100% inhibition) | B (26-50% inhibition) | D (76-100% inhibition) | C (51-75% inhibition) | D (76-100% inhibition) | C (51-75% inhibition) | 51 to 75% | 51 to 75% | – | – | – | – | – | – | – | – |
| CN(Cc1ccccc1)C(=O)c1nc(-c2ccccn2)nc(O)c1O [drawing 799] | B (26-50% inhibition) | C (51-75% inhibition) | B (26-50% inhibition) | C (51-75% inhibition) | B (26-50% inhibition) | C (51-75% inhibition) | 26 to 50% | 26 to 50% | – | – | – | – | – | – | – | – |
| COC(=O)c1nc(C2NCCN2C)nc(O)c1O (stereo not shown) | B (26-50% inhibition) | C (51-75% inhibition) | C (51-75% inhibition) | D (76-100% inhibition) | C (51-75% inhibition) | C (51-75% inhibition) | 26 to 50% | 51 to 75% | – | – | – | – | – | – | – | – |

Next, values leading:

| KRas wild type + SOS: % inh. ([1]; with SOS) | KRas wild type: % inh. [1] | KRas G12C mutant + SOS: % inh. ([2]; with SOS) | KRas G12C mutant: % inh. ([2]; without SOS) | KRas Q61H mutant + SOS: % inh. ([3]; with SOS) | KRas Q61H mutant: % inh. ([3]; without SOS) | inhibition at 20 µM [4, 5] | inhibition at 20 µM [4, 6] | KRas wild type + SOS: % inh. ([1]; with SOS (Table 7A)) | KRas wild type % inh. [1] | KRas G12C mutant + SOS: % inh. ([2]; with SOS (Table 7A)) | KRas G12C mutant: % inh. ([2]; without SOS (Table 7A)) | KRas Q61H mutant + SOS: % inh. ([3]; with SOS (Table 7A)) | KRas Q61H mutant: % inh. ([3]; without SOS (Table 7A)) | inhibition at 20 µM [4, 7] | inhibition at 20 µM [4, 8] | Structure (SMILES) |
| --- | --- | --- | --- | --- | --- | --- | --- | --- | --- | --- | --- | --- | --- | --- | --- | --- |
| – | – | – | – | – | – | – | – | C (51-75% inhibition) | C (51-75% inhibition) | C (51-75% inhibition) | C (51-75% inhibition) | C (51-75% inhibition) | B (26-50% inhibition) | 51 to 75% | 26 to 50% | CO[C@H]1CC[C@@H](Nc2nc(-c3ncc[nH]3)nc3sc(-c4ccn(C)n4)c(-c4ccccc4)c23)C1 [drawing 911] |
| – | – | – | – | – | – | – | – | A (1-25% inhibition) | A (1-25% inhibition) | B (26-50% inhibition) | B (26-50% inhibition) | B (26-50% inhibition) | C (51-75% inhibition) | 26 to 50% | 26 to 50% | Cn1ccc(-c2sc3nc(-c4nccn4C)nc(O)c3c2-c2ccccc2)n1 [drawing 904] |
| – | – | – | – | – | – | – | – | C (51-75% inhibition) | C (51-75% inhibition) | C (51-75% inhibition) | C (51-75% inhibition) | C (51-75% inhibition) | C (51-75% inhibition) | 51 to 75% | 51 to 75% | COC1CCN(C(=O)c2sc3nc(-c4nccn4C)nc(N[C@H]4C[C@@H](OC)C4)c3c2-c2ccccc2)C1 (stereo partly shown) [drawing 923] |
| – | – | – | – | – | – | – | – | C (51-75% inhibition) | C (51-75% inhibition) | C (51-75% inhibition) | D (76-100% inhibition) | C (51-75% inhibition) | C (51-75% inhibition) | 51 to 75% | 76 to 100% | COc1cccc(-c2sc3nc(-c4nccn4C)nc(NC4CCC(OC)C4)c3c2C)c1F (stereo not shown) [drawing 893] |
| – | – | – | – | – | – | – | – | D (76-100% inhibition) | D (76-100% inhibition) | C (51-75% inhibition) | D (76-100% inhibition) | D (76-100% inhibition) | C (51-75% inhibition) | 76 to 100% | 76 to 100% | Cc1c(-c2ccn(C)n2)sc2nc(-c3nccn3C)nc(NCCOC(=O)N(C)C)c12 [drawing 918] |
| – | – | – | – | – | – | – | – | C (51-75% inhibition) | D (76-100% inhibition) | C (51-75% inhibition) | C (51-75% inhibition) | D (76-100% inhibition) | D (76-100% inhibition) | 51 to 75% | 76 to 100% | CO[C@H]1CC[C@@H](Nc2nc(-c3nccn3C)nc3sc(C(=O)N4CCOCC4)c(-c4ccccc4)c23)C1 [drawing 927] |
